From US4020150A (priority 1974, dated 1977)

Tests used:
Walker tumor [1] = conditions: cited from earlier work
Walker tumor [2] = conditions: rat, in vivo; cited from earlier work
[3] = cited from earlier work
burn wounds = conditions: burn therapy; cited from earlier work
P. berghei = conditions: high doses of PABA, protocol of Rollo
tumors = conditions: by itself; cited from earlier work
[4] = in water; cited from earlier work
[5] = system: Yoshidia sarcoma and other tumors; conditions: Connors et al.; cited from earlier work

N[C@@H](Cc1ccc(N(CCCl)CCCl)cc1)C(=O)O [melphalan]
effectiveness against the tumor (Walker tumor [1]): very effective against the tumor | ratio of concentration between the Walker tumor and the liver (Walker tumor [2]): 1:5

Nc1ccc(S(=O)(=O)Nc2ncccn2)cc1 [sodium sulfadiazine]
solubility ([3]; water-soluble): water-soluble | reaction with body fluids / consumption (burn wounds): would be used up rapidly and none would be left after a few days

Nc1ccc(S(=O)(=O)Nc2ncccn2)cc1 [sulfadiazine]
inhibition of activity by PABA (P. berghei): significantly inhibited by PABA | solubility of free acid ([3]; free acid): insoluble as a free acid | solubility when ionized ([3]; ionized): very soluble when ionized | anti-tumor activity (tumors): not an anti-tumor agent

Nc1ccc(S(=O)(=O)Nc2cnccn2)cc1 [sulfapyrazine]
pKa [4]: 6.0 | selective deposition/concentration in Walker tumor (Walker tumor [2]): selectively deposited in the tumor regions

Nc1ccc(S(=O)(=O)Nc2nccs2)cc1 [sulfathiazole]
pKa [4]: 7.1 | selective concentration in other transplanted animal tumors [5]: do not concentrate selectively in these tumors
